System: 5×FAD exosomes (Aβ-associated astrosomes)
Assay: Incubation of serum exosomes with ceramide analogs or anti-ceramide IgG; vesicle size by nanoparticle tracking analysis (ZetaView)
Assay type: biochemical, mouse
Details: for Vesicle size reduced: 5×FAD serum exosomes incubated at 37° C. for 16 h with 50 μM ceramide analog, NTA
Description: Sera were isolated from freshly obtained mouse blood. Blood was drawn through heart puncture and was allowed to clot at room temperature for 30 min. Blood was then centrifuged at 1,800×g for 10 min at 4° C. The clear upper layer was transferred to a fresh tube and centrifuged at 3,000×g for 15 min to pellet residual blood cells. Exosomes were extracted using ExoQuick exosome solution (EXOQ; System Biosciences, Inc., Mountain View, Calif., USA) according to the manufacturer protocol. Briefly, one-fourth milliliter aliquots of serum was treated with 67 μl of ExoQuick exosome solution, followed by incubation for 60 min at 4° C. to precipitate total exosomes. Tubes were then centrifuged at 1,500×g for 30 min. Each exosome pellet was resuspended in 100 μl of PBS with 1× Halt™ Protease Inhibitor Cocktail (Thermo Fisher, Massachusetts, USA). In certain experiments exosomes were labeled with PKH67 Green Fluorescent Dye. The exosomes were labeled with PKH67 Green Fluorescent Cell Linker Kit for General Cell Membrane Labelling (Sigma-Aldrich) according to the manufacturer's protocol. Briefly, ExoQuick pellets were resuspended in PBS, 1 ml of Diluent C (CGLDIL, Sigma-Aldrich) was then added to each sample. As a control, 1 ml of Diluent C after adding the same volume of PBS was used. Next, 4 μl of PKH67 dye was added to 1 ml of Diluent C then mixed with the exosomes and the control, PKH67/Diluent C mixture was ultra-centrifuged before being added to samples. The samples were allowed to incubate <5 min on a rotor plate. One ml of 1% BSA was then added to bind excess dye. Samples were ultra-centrifuged at 110,000×g for 70 min, washed and centrifuged again. For exosomes quantification, nanoparticle tracking analysis (NTA) with the ZetaView PMX110 (Particle Metrix) was used. Briefly, exosomes were resuspended in PBS. Two ml of appropriately diluted samples were injected into the ZetaView cell. The instrument was set to obtain NTA measurements at 11 positions, two cycles at each position. […]

Compound	Vesicle size reduced	Aggregates formed by 5×FAD serum astrosomes associated with Aβ (size distribution, FIG. 2D) (5×FAD exosomes treated with ceramide analog, particle diameter by NTA)
CCCCCCCCCCCCCCCC(=O)N(CCO)CCO [B16, N-palmitoyl bisethanolamine]	not	–
CCCCCCCC/C=C\CCCCCCCC(=O)NC(CO)CO [S18, N-oleoyl serinol]	17%	reduced
